{"source": "patent US20060079453A1", "about": "“Hla binding peptides and their uses” (priority 2002, published 2006)", "note": "pIC50: −log10 of the molar value. No end group written: not given here.", "data": [{"molecular_target": "HLA-A*6801 (Homo sapiens, UniProt P04439, A269V/D185E/E176V/E277Q/E87N/F33Y/G231S/I121M/I166T/I218V/L180W/L300P/L318F/N151K/P208A/P217A/Q86R/R169H/T345S)", "test": "biochemical", "assay_type": "binding", "values": [{"sequence": "QLARQAKQH", "pIC50": 6.61}, {"sequence": "EVYKFLFTDLR", "pIC50": 7.96}, {"sequence": "LQMMNVNLQK", "pIC50": 6.49}, {"sequence": "IALLIIPPK", "pIC50": 5.71}, {"sequence": "SSPLFNNFYK", "pIC50": 8.20}, {"sequence": "KISEYRHYNY", "pIC50": 4.60}, {"sequence": "ELFDKDTFFK", "pIC50": 8.44}, {"sequence": "ATRDLCIVYR", "pIC50": 7.55}, {"sequence": "AVLQDIVLH", "pIC50": 4.57}, {"sequence": "AVDLSFFLK", "pIC50": 5.39}, {"sequence": "TTRYKYLNK", "pIC50": 5.59}, {"sequence": "KSKFGYGAK", "pIC50": "< 5.12"}, {"sequence": "SISGKYDIK", "pIC50": 5.76}, {"sequence": "ATLESITKR", "pIC50": 6.73}, {"sequence": "FLFTDLRIVYR", "pIC50": 8.85}, {"sequence": "VTIRIGGQLR", "pIC50": 7.80}, {"sequence": "SLPHAACHK", "pIC50": 6.18}, {"sequence": "NLVYGETLEK", "pIC50": 7.06}, {"sequence": "FAFKDLFVVK", "pIC50": 8.44}, {"sequence": "ILYRDCIAY", "pIC50": "< 4.71"}, {"sequence": "RMYVGGVEH", "pIC50": "< 4.54"}, {"sequence": "RFEVYQFAFK", "pIC50": 5.61}, {"sequence": "RFYITTRYK", "pIC50": 4.76}, {"sequence": "KISEYRHYCR", "pIC50": 5.83}, {"sequence": "YFVYGTTLEK", "pIC50": 7.28}, {"sequence": "FSYDLRLNK", "pIC50": 7.82}, {"sequence": "KLYSKISEYR", "pIC50": 7.04}, {"sequence": "VTVKIGGQLR", "pIC50": 7.28}, {"sequence": "LVGPGPGK", "pIC50": 6.22}, {"sequence": "VTVKVGGQLK", "pIC50": 6.98}, {"sequence": "SVYGTTLER", "pIC50": 7.68}, {"sequence": "AVSEIQNNK", "pIC50": 7.85}, {"sequence": "QAGFFLLTR", "pIC50": 8.28}, {"sequence": "AFKDLCIVYK", "pIC50": 6.42}, {"sequence": "RFYSKVSEFK", "pIC50": 6.26}, {"sequence": "GTRQTRKNRK", "pIC50": 5.22}, {"sequence": "KFSEYRHYNY", "pIC50": 5.75}, {"sequence": "AFRDLCIVYK", "pIC50": 7.24}, {"sequence": "KVLCDLLIR", "pIC50": 5.04}, {"sequence": "AFADLTVVYK", "pIC50": 7.30}, {"sequence": "STLPEGPGPGR", "pIC50": 7.52}, {"sequence": "KTMNNYMIK", "pIC50": 7.54}, {"sequence": "KVRRRRWRAR", "pIC50": 4.81}]}, {"molecular_target": "HLA-A*3301 (Homo sapiens, UniProt P04439, A270S/D185E/E176V/E277Q/E87N/F33T/G231S/H175R/I121M/I218V/I322F/K168Q/K210R/L300P/L318F/M331R/P217A/Q86R/Q94H/R138Q/T323A/T345S/T97I/V358M/Y195H)", "test": "biochemical", "assay_type": "binding", "values": [{"sequence": "QLARQAKQH", "pIC50": 5.78}, {"sequence": "EVYKFLFTDLR", "pIC50": 8.37}, {"sequence": "LQMMNVNLQK", "pIC50": 5.95}, {"sequence": "IALLIIPPK", "pIC50": 5.85}, {"sequence": "SSPLFNNFYK", "pIC50": 5.76}, {"sequence": "KISEYRHYNY", "pIC50": 4.45}, {"sequence": "ELFDKDTFFK", "pIC50": 7.89}, {"sequence": "ATRDLCIVYR", "pIC50": 7.36}, {"sequence": "AVLQDIVLH", "pIC50": 4.59}, {"sequence": "AVDLSFFLK", "pIC50": "< 4.56"}, {"sequence": "TTRYKYLNK", "pIC50": 6.19}, {"sequence": "KSKFGYGAK", "pIC50": "< 3.91"}, {"sequence": "FLFTDLRIVYR", "pIC50": 7.68}, {"sequence": "VTIRIGGQLR", "pIC50": 5.87}, {"sequence": "NLVYGETLEK", "pIC50": 6.92}, {"sequence": "ILYRDCIAY", "pIC50": 4.35}, {"sequence": "RMYVGGVEH", "pIC50": "< 3.91"}, {"sequence": "RFEVYQFAFK", "pIC50": 5.54}, {"sequence": "RFYITTRYK", "pIC50": 7.01}, {"sequence": "VTVKIGGQLR", "pIC50": 5.42}, {"sequence": "LVGPGPGK", "pIC50": "< 3.90"}, {"sequence": "VTVKVGGQLK", "pIC50": 4.34}, {"sequence": "SVYGTTLER", "pIC50": 6.34}, {"sequence": "AVSEIQNNK", "pIC50": 4.59}, {"sequence": "RFYSKVSEFK", "pIC50": 5.35}, {"sequence": "GTRQTRKNRK", "pIC50": 4.22}, {"sequence": "KFSEYRHYNY", "pIC50": 4.74}, {"sequence": "KVLCDLLIR", "pIC50": 5.23}, {"sequence": "STLPEGPGPGR", "pIC50": 6.09}]}, {"molecular_target": "HLA-A*3101 (Homo sapiens, UniProt P04439, A270S/D185E/E176V/E277Q/F33T/G231S/G80R/H175R/I121M/I218V/I322F/K168Q/L300P/L318F/M331R/P217A/Q94H/R138Q/T323A/T345S/T97I/V358M)", "test": "biochemical", "assay_type": "binding", "values": [{"sequence": "QLARQAKQH", "pIC50": 6.02}, {"sequence": "ELFDKDTFFK", "pIC50": 5.43}, {"sequence": "ATRDLCIVYR", "pIC50": 8.33}, {"sequence": "AVLQDIVLH", "pIC50": 5.20}, {"sequence": "AVDLSFFLK", "pIC50": 5.21}, {"sequence": "SISGKYDIK", "pIC50": 4.55}, {"sequence": "ATLESITKR", "pIC50": 7.00}, {"sequence": "FLFTDLRIVYR", "pIC50": 7.24}, {"sequence": "VTIRIGGQLR", "pIC50": 7.21}, {"sequence": "SLPHAACHK", "pIC50": 6.66}, {"sequence": "NLVYGETLEK", "pIC50": 6.12}, {"sequence": "FAFKDLFVVK", "pIC50": 6.28}, {"sequence": "RFYITTRYK", "pIC50": 7.82}, {"sequence": "KISEYRHYCR", "pIC50": 7.60}, {"sequence": "YFVYGTTLEK", "pIC50": 5.66}, {"sequence": "FSYDLRLNK", "pIC50": 6.34}, {"sequence": "KLYSKISEYR", "pIC50": 8.19}, {"sequence": "LVGPGPGK", "pIC50": 4.62}, {"sequence": "QAGFFLLTR", "pIC50": 6.52}, {"sequence": "AFKDLCIVYK", "pIC50": 7.41}, {"sequence": "RFYSKVSEFK", "pIC50": 7.52}, {"sequence": "GTRQTRKNRK", "pIC50": 5.60}, {"sequence": "AFRDLCIVYK", "pIC50": 8.00}, {"sequence": "KVLCDLLIR", "pIC50": 7.18}, {"sequence": "AFADLTVVYK", "pIC50": 5.95}, {"sequence": "STLPEGPGPGR", "pIC50": 7.55}, {"sequence": "KTMNNYMIK", "pIC50": 7.62}, {"sequence": "KVRRRRWRAR", "pIC50": 6.47}]}, {"molecular_target": "HLA-A*0301 (Homo sapiens, UniProt P04439)", "test": "biochemical", "assay_type": "binding", "values": [{"sequence": "QLARQAKQH", "pIC50": 5.07}, {"sequence": "EVYKFLFTDLR", "pIC50": 4.51}, {"sequence": "LQMMNVNLQK", "pIC50": 7.60}, {"sequence": "SSPLFNNFYK", "pIC50": 7.00}, {"sequence": "KISEYRHYNY", "pIC50": 7.38}, {"sequence": "ELFDKDTFFK", "pIC50": 6.84}, {"sequence": "ATRDLCIVYR", "pIC50": 6.63}, {"sequence": "AVDLSFFLK", "pIC50": 6.65}, {"sequence": "TTRYKYLNK", "pIC50": 6.93}, {"sequence": "KSKFGYGAK", "pIC50": 7.44}, {"sequence": "SISGKYDIK", "pIC50": 5.68}, {"sequence": "ATLESITKR", "pIC50": 5.84}, {"sequence": "FLFTDLRIVYR", "pIC50": 6.17}, {"sequence": "VTIRIGGQLR", "pIC50": 5.50}, {"sequence": "SLPHAACHK", "pIC50": 7.49}, {"sequence": "NLVYGETLEK", "pIC50": 6.07}, {"sequence": "FAFKDLFVVK", "pIC50": 6.11}, {"sequence": "RMYVGGVEH", "pIC50": 8.42}, {"sequence": "RFYITTRYK", "pIC50": 8.72}, {"sequence": "KISEYRHYCR", "pIC50": 6.31}, {"sequence": "YFVYGTTLEK", "pIC50": 6.69}, {"sequence": "FSYDLRLNK", "pIC50": 7.54}, {"sequence": "KLYSKISEYR", "pIC50": 8.27}, {"sequence": "VTVKIGGQLR", "pIC50": 4.72}, {"sequence": "LVGPGPGK", "pIC50": 6.00}, {"sequence": "VTVKVGGQLK", "pIC50": 6.69}, {"sequence": "SVYGTTLER", "pIC50": 7.55}, {"sequence": "AVSEIQNNK", "pIC50": 7.60}, {"sequence": "QAGFFLLTR", "pIC50": 4.99}, {"sequence": "AFKDLCIVYK", "pIC50": 6.07}, {"sequence": "RFYSKVSEFK", "pIC50": 7.57}, {"sequence": "KFSEYRHYNY", "pIC50": 5.24}, {"sequence": "AFRDLCIVYK", "pIC50": 7.51}, {"sequence": "KVLCDLLIR", "pIC50": 6.44}, {"sequence": "AFADLTVVYK", "pIC50": 5.63}, {"sequence": "KTMNNYMIK", "pIC50": 7.77}, {"sequence": "KVRRRRWRAR", "pIC50": 6.49}]}, {"molecular_target": "HLA-A*1101 (Homo sapiens, UniProt P04439, A114D/D185E/E176A/F33Y/L180Q/S129P/T187R)", "sequence (P04439 25-365 limits assumed, stated change not applied)": "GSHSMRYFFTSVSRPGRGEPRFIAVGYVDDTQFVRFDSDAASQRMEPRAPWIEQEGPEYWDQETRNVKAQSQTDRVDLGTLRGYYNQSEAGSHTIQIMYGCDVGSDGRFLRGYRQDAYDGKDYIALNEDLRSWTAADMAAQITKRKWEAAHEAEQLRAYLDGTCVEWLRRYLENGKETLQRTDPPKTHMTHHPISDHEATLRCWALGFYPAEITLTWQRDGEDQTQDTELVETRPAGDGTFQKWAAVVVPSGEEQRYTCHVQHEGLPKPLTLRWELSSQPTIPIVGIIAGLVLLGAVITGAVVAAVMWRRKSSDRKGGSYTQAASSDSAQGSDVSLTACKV", "test": "biochemical", "assay_type": "binding", "values": [{"sequence": "EVYKFLFTDLR", "pIC50": 6.22}, {"sequence": "LQMMNVNLQK", "pIC50": 8.14}, {"sequence": "IALLIIPPK", "pIC50": 6.97}, {"sequence": "SSPLFNNFYK", "pIC50": 9.15}, {"sequence": "TTRYKYLNK", "pIC50": 6.07}, {"sequence": "KSKFGYGAK", "pIC50": 6.22}, {"sequence": "SISGKYDIK", "pIC50": 7.30}, {"sequence": "ATLESITKR", "pIC50": 7.80}, {"sequence": "SLPHAACHK", "pIC50": 7.18}, {"sequence": "FAFKDLFVVK", "pIC50": 7.15}, {"sequence": "ILYRDCIAY", "pIC50": 5.74}, {"sequence": "RMYVGGVEH", "pIC50": 6.56}, {"sequence": "RFEVYQFAFK", "pIC50": 6.21}, {"sequence": "KISEYRHYCR", "pIC50": 6.16}, {"sequence": "YFVYGTTLEK", "pIC50": 7.21}, {"sequence": "FSYDLRLNK", "pIC50": 8.31}, {"sequence": "KLYSKISEYR", "pIC50": 6.77}, {"sequence": "VTVKVGGQLK", "pIC50": 7.27}, {"sequence": "SVYGTTLER", "pIC50": 8.19}, {"sequence": "AVSEIQNNK", "pIC50": 7.96}, {"sequence": "QAGFFLLTR", "pIC50": 5.78}, {"sequence": "AFKDLCIVYK", "pIC50": 7.33}, {"sequence": "AFRDLCIVYK", "pIC50": 7.82}, {"sequence": "AFADLTVVYK", "pIC50": 6.97}, {"sequence": "KTMNNYMIK", "pIC50": 8.26}, {"sequence": "KVRRRRWRAR", "pIC50": "< 4.68"}]}]}
